In ChEMBL document CHEMBL6120968, “Discovery of Thiadiazoleamide Derivatives as Potent, Selective, and Orally Available Antagonists Disrupting Androgen Receptor Homodimer” (J Med Chem, 2024):

Assays:
[1] = Microsomal stability in human liver microsome assessed as intrinsic clearance measured upto 60 mins in presence of NADPH and UDPGA by HPLC-MS/MS analysis; type: ADME; conditions: liver microsomes, read-out: CLH
[2] = Cmax in rat at 20 mg/kg, po by LC-MS/MS analysis; type: ADME, organism-based; conditions: in vivo
[3] = AUC (0 to t) in rat at 20 mg/kg, iv by LC-MS/MS analysis; type: ADME, organism-based; conditions: in vivo
[4] = Microsomal stability in monkey liver microsome assessed as intrinsic clearance measured upto 60 mins in presence of NADPH and UDPGA by HPLC-MS/MS analysis; type: ADME, Macaca mulatta; conditions: rhesus monkey, liver microsomes, read-out: CLH
[5] = MRTlast in rat at 20 mg/kg, iv by LC-MS/MS analysis; type: ADME, organism-based; conditions: in vivo
[6] = Toxicity in male CB17.SCID mouse implanted with human LNCaP cells assessed as body weight loss at 40 mg/kg, po measured upto 30 days; type: organism-based; conditions: in vivo, 720 h, time < 30 day
[7] = Microsomal stability in rat liver microsome assessed as half life measured upto 60 mins in presence of NADPH and UDPGA by HPLC-MS/MS analysis; type: ADME; conditions: liver microsomes
[8] = Observed apparent volume of distribution during terminal phase in rat at 20 mg/kg, iv by LC-MS/MS analysis; type: ADME, organism-based; conditions: in vivo
[9] = AUC (0 to infinity) in rat at 20 mg/kg, po by LC-MS/MS analysis; type: ADME, organism-based; conditions: in vivo
[10] = Half life in rat at 20 mg/kg, po by LC-MS/MS analysis; type: ADME, organism-based; conditions: in vivo
[11] = Microsomal stability in rat liver microsome assessed as intrinsic clearance measured upto 60 mins in presence of NADPH and UDPGA by HPLC-MS/MS analysis; type: ADME; conditions: liver microsomes, read-out: CLH
[12] = Observed apparent oral clearance in rat at 20 mg/kg, iv by LC-MS/MS analysis; type: ADME, organism-based; conditions: in vivo
[13] = Acute toxicity in male CB17.SCID mouse implanted with human LNCaP cells assessed as abnormal behavior at 1250 mg/kg, po measured within 14 days; type: organism-based; conditions: in vivo, 336 h, time 14 day
[14] = Cmax in rat at 20 mg/kg, iv by LC-MS/MS analysis; type: ADME, organism-based; conditions: in vivo
[15] = Acute toxicity in male CB17.SCID mouse implanted with human LNCaP cells assessed as body weight loss at 1250 mg/kg, po measured within 14 days; type: organism-based; conditions: in vivo, 336 h, time 14 day
[16] = target: T1, Androgen receptor (Homo sapiens, UniProt P10275); test: Antagonist activity at Androgen receptor in human LNCaP cells transfected with ARR2PB-eGFP incubated for 3 days by synergy H1 microplate reader analysis; type: cell-based
T1 sequence (P10275 whole entry): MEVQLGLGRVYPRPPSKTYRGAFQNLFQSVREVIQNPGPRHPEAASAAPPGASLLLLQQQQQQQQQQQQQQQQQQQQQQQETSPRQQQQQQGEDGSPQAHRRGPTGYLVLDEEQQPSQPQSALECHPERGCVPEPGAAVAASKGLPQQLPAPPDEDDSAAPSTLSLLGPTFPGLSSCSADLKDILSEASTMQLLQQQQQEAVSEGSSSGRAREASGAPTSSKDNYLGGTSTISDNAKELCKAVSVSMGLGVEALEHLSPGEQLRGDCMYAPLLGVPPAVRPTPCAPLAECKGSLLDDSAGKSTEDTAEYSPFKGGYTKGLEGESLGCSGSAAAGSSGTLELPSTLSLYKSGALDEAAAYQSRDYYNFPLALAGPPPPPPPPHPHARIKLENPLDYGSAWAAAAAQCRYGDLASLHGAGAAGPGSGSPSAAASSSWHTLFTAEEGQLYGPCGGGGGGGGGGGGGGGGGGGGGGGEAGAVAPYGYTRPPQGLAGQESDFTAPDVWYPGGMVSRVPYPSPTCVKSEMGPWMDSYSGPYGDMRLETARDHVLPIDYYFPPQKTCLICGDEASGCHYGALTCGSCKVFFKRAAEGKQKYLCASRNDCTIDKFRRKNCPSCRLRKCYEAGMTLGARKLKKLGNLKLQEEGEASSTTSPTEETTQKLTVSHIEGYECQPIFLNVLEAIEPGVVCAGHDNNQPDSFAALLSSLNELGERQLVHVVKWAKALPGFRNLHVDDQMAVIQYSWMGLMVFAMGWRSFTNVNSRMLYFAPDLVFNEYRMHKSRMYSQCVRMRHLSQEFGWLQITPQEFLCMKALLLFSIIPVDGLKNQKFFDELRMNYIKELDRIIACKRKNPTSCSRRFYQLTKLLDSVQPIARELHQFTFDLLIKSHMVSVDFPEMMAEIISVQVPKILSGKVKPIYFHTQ

[17] = Microsomal stability in human liver microsome assessed as half life measured upto 60 mins in presence of NADPH and UDPGA by HPLC-MS/MS analysis; type: ADME; conditions: liver microsomes
[18] = Antiproliferative activity against human WPMY-1 cells assessed as reduction in cell viability upto 2 uM incubated for 3 days by MTT assay; type: toxicity, cell-based; conditions: wpmy-1, 72 h, time 3 day
[19] = AUC (0 to t) in rat at 20 mg/kg, po by LC-MS/MS analysis; type: ADME, organism-based; conditions: in vivo
[20] = target: Androgen receptor (Homo sapiens, UniProt P10275, W742C); test: Antagonist activity at Androgen receptor W742C mutant in human HEK293T cells cotransfected with MMTV-luc and renilla plasmid incubated for 24 hrs by Dual luciferase assay; type: cell-based
Sequence of Androgen receptor (Homo sapiens, UniProt P10275, W742C) (P10275 whole entry W742C): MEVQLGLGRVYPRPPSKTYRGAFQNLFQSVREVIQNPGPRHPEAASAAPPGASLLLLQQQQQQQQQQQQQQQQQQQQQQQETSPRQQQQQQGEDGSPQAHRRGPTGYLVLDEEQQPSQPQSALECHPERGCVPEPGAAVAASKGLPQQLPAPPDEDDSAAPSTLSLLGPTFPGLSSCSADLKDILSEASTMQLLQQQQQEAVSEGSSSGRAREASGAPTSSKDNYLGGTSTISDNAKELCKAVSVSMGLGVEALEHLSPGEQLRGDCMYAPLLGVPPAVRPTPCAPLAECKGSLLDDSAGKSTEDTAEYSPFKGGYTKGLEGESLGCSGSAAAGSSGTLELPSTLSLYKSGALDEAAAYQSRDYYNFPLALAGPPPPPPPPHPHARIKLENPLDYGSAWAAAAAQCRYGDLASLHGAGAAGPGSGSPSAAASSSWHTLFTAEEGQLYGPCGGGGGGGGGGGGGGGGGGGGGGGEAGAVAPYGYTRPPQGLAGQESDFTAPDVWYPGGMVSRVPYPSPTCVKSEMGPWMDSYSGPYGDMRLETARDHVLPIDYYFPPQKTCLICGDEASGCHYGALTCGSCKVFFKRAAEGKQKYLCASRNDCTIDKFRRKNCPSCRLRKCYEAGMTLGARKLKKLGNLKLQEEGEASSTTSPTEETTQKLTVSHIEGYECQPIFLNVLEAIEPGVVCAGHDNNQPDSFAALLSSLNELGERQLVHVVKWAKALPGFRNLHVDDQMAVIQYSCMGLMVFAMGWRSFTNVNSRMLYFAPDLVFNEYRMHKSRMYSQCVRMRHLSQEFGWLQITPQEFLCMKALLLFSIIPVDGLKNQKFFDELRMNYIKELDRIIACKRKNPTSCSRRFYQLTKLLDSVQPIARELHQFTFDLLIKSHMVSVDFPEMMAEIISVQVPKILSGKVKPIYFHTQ

[21] = Microsomal stability in Beagle dog liver microsome assessed as parent compound remaining at 60 mins in presence of NADPH and UDPGA by HPLC-MS/MS analysis; type: ADME, Canis lupus familiaris; conditions: liver microsomes, read-out: Stability
[22] = Observed apparent oral clearance in rat at 20 mg/kg, po by LC-MS/MS analysis; type: ADME, organism-based; conditions: in vivo
[23] = Microsomal stability in monkey liver microsome assessed as parent compound remaining at 60 mins in presence of NADPH and UDPGA by HPLC-MS/MS analysis; type: ADME, Macaca mulatta; conditions: rhesus monkey, liver microsomes, read-out: Stability
[24] = Half life in rat at 20 mg/kg, iv by LC-MS/MS analysis; type: ADME, organism-based; conditions: in vivo
[25] = Microsomal stability in mouse liver microsome assessed as intrinsic clearance measured upto 60 mins in presence of NADPH and UDPGA by HPLC-MS/MS analysis; type: ADME; conditions: liver microsomes, read-out: CLH
[26] = Microsomal stability in Beagle dog liver microsome assessed as intrinsic clearance measured upto 60 mins in presence of NADPH and UDPGA by HPLC-MS/MS analysis; type: ADME, Canis lupus familiaris; conditions: liver microsomes, read-out: CLH
[27] = Acute toxicity in po dosed male CB17.SCID mouse implanted with human LNCaP cells assessed as body weight loss measured within 14 days; type: organism-based; conditions: in vivo, time 14 day
[28] = Microsomal stability in human liver microsome assessed as parent compound remaining at 60 mins in presence of NADPH and UDPGA by HPLC-MS/MS analysis; type: ADME; conditions: liver microsomes, read-out: Stability
[29] = Observed apparent volume of distribution during terminal phase in rat at 20 mg/kg, po by LC-MS/MS analysis; type: ADME, organism-based; conditions: in vivo, read-out: Vz/F_obs

Cc1oc(-c2cccc(C(F)(F)F)c2)cc1C(=O)Nc1nc(CN2CCOCC2)ns1
microsomal CLint [1]: 18.7 µL/min/mg
Cmax [2]: 1880 ng/mL
AUC(0-t) [3]: 32000 ng·h/mL
microsomal CLint [4]: 7.3 µL/min/mg
MRT last [5]: 6 h
Activity [6]: Non-toxic
half-life [7]: 0.494 h
Vz/F_obs [8]: 6.8 L/kg
AUC(0-inf) [9]: 22100 ng·h/mL
half-life [10]: 6.86 h
microsomal CLint [11]: 23.4 µL/min/mg
CL/F [12]: 10.2 mL/min/kg
Activity [13]: Non-toxic
Cmax [14]: 8450 ng/mL
Activity [15]: Non-toxic
IC50 [16]: 18 nM
half-life [17]: 0.618 h
Activity [18]: Non-toxic
AUC(0-t) [19]: 20500 ng·h/mL
IC50 [20]: 240 nM
remaining at 1 h [21]: 12.6%
CL/F [22]: 17.3 mL/min/kg
remaining at 1 h [23]: 55.1%
half-life [24]: 7.84 h
microsomal CLint [25]: 18 µL/min/mg
microsomal CLint [26]: 31.5 µL/min/mg
LD50 at 336 h [27]: 1250 mg/kg
remaining at 1 h [28]: 29.7%
Vd/F [29]: 11.1 L/kg
